Laboratory results from US7157452B2, “Substituted 4,9-dihydrocyclopenta{imn}phenanthridine-5-ones derivatives thereof and their uses” (MGI GP, Inc., priority 2001, dated 2007).
pIC50: −log10 of the molar value. Read-outs that look alike come from different tables or passages of the source.

Target: T1, purified recombinant human PARP (Homo sapiens, UniProt P09874)
T1 construct: purchased Trevigan (Gaithersburg, Md.)
Test: PARP enzyme assay with [3H]NAD, scintillation counting
Format: biochemical
Description: The reaction is initiated by incubating the mixture at 25° C. After 15 minutes of incubation, the reaction is terminated by adding 500 microliters of ice cold 20% (w/v) trichloroacetic acid. The precipitate formed is transferred onto a glass fiber filter (Packard Unifilter-GF/B) and washed three times with ethanol. After the filter is dried, the radioactivity is determined by scintillation counting.
Using the PARP assay described above, approximate IC50 (μM) values were obtained as shown in the following Table III, which also include specific embodiments of the compounds of the present invention: […]

[1] = Table III, read-out: approximate IC50

T1 sequence (P09874 whole entry): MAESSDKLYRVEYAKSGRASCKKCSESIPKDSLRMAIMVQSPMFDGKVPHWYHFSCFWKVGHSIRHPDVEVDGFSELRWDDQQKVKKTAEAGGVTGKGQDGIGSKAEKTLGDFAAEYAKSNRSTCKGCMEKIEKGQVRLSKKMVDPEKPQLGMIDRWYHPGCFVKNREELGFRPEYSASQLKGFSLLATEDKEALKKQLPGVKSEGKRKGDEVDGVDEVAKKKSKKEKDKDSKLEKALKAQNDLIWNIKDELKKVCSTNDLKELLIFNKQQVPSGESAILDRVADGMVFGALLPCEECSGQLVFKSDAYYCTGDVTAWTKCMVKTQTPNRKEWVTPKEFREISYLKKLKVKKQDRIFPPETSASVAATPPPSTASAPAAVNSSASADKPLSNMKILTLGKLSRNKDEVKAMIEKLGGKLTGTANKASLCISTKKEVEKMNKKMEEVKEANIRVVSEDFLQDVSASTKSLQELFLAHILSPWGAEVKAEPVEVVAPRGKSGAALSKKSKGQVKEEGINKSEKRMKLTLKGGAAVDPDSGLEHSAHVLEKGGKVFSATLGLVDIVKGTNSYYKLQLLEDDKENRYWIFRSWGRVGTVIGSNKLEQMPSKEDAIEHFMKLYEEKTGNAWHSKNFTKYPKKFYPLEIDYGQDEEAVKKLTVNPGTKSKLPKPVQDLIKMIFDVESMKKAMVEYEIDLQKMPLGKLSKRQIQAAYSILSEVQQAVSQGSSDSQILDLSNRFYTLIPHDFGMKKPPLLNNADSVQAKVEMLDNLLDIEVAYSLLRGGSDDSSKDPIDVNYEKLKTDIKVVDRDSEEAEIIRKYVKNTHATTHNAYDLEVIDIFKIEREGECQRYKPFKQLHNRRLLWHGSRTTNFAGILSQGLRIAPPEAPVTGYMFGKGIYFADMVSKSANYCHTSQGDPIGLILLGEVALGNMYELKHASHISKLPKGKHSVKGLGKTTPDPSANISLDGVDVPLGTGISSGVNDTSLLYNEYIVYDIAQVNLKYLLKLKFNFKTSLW

| SMILES | pIC50 [1] | pIC50 (examples table, read-out: IC50) |
| --- | --- | --- |
| CN(C)CCN(C)S(=O)(=O)c1ccc2[nH]c(=O)c3cccc4c3c2c1C4 [Example 17] | 6.81 | 6.81 |
| O=c1[nH]c2ccc(S(=O)(=O)N3CCN(c4ccc(F)cc4)CC3)c3c2c2c(cccc12)C3 [Example 8] | 6.47 | 6.47 |
| O=c1[nH]c2ccc(S(=O)(=O)NCCN3CCCC3)c3c2c2c(cccc12)C3 [Example 5] | 7.05 | 7.05 |
| CN(C)CCCN(C)S(=O)(=O)c1ccc2[nH]c(=O)c3cccc4c3c2c1C4 [Example 18] | 6.96 | 6.96 |
| O=c1[nH]c2ccc(S(=O)(=O)NCCCc3ccccc3)c3c2c2c(cccc12)C3 [Example 4] | 5.95 | 5.95 |
| O=c1[nH]c2ccc(S(=O)(=O)N3CCN(c4ccc(F)cc4F)CC3)c3c2c2c(cccc12)C3 [Example 9] | 6.68 | 6.68 |
| CN1CCC(CN2CCN(S(=O)(=O)c3ccc4[nH]c(=O)c5cccc6c5c4c3C6)CC2)CC1 [Example 25] | 6.78 | 6.78 |
| O=c1[nH]c2ccc(S(=O)(=O)N3CCN(c4ccncc4)CC3)c3c2c2c(cccc12)C3 [Example 24] | 6.03 | 6.03 |
| CCN(CC)CCCNS(=O)(=O)c1ccc2[nH]c(=O)c3cccc4c3c2c1C4 [Example 14] | 7.04 | 7.04 |
| O=c1[nH]c2ccc(S(=O)(=O)NCCc3ccccn3)c3c2c2c(cccc12)C3 [Example 15] | 6.94 | 6.94 |
| CCN(CC)CCNS(=O)(=O)c1ccc2[nH]c(=O)c3cccc4c3c2c1C4 [Example 20] | 7.11 | 7.11 |
| CN1CCN(CC(=O)Nc2ccc3[nH]c(=O)c4cccc5c4c3c2C5)CC1 [Example 31, 2-(4-Methyl-piperazin-1-yl)-N-(5-oxo-5,9-dihydro-4H-cyclopenta[lmn]phenanthridin-1-yl)-acetamide] | 7.35 | 7.35 |

Other lines, results leading:

| pIC50 [1] | pIC50 (examples table, read-out: IC50) | SMILES |
| --- | --- | --- |
| 6.66 | 6.66 | O=C(CN1CCN(Cc2ccccc2)CC1)Nc1ccc2[nH]c(=O)c3cccc4c3c2c1C4 [Example 33] |
| 6.93 | 6.93 | CCN(CC)CCCNCC(=O)Nc1ccc2[nH]c(=O)c3cccc4c3c2c1C4 [Example 46] |
| 6.69 | 6.69 | O=C(CN1CCN(c2ccncc2)CC1)Nc1ccc2[nH]c(=O)c3cccc4c3c2c1C4 [Example 56] |
| 6.64 | 6.64 | O=C(CN1CCN(c2ccc(F)cc2)CC1)Nc1ccc2[nH]c(=O)c3cccc4c3c2c1C4 [Example 40] |
| 6.66 | 6.66 | O=C(CN1CCN(c2ccc(C(F)(F)F)cc2)CC1)Nc1ccc2[nH]c(=O)c3cccc4c3c2c1C4 [Example 39] |
| 7.03 | 7.03 | O=C(CN1CCC(N2CCCC2)CC1)Nc1ccc2[nH]c(=O)c3cccc4c3c2c1C4 [Example 44] |
| 7.44 | 7.44 | CC(=O)N1CCN(CC(=O)Nc2ccc3[nH]c(=O)c4cccc5c4c3c2C5)CC1 [Example 32, 2-(4-Acetyl-piperazin-1-yl)-N-(5-oxo-5,9-dihydro-4H-cyclopenta[lmn]phenanthridin-1-yl)-acetamide] |
| 6.71 | 6.71 | O=C(CN1CCN(CC2CCCO2)CC1)Nc1ccc2[nH]c(=O)c3cccc4c3c2c1C4 (centres unmarked) [Example 35] |
| 7.02 | 7.02 | CN1CCC(CN2CCN(CC(=O)Nc3ccc4[nH]c(=O)c5cccc6c5c4c3C6)CC2)CC1 [Example 52] |
| 6.84 | 6.84 | CN(C)CCCN(C)CC(=O)Nc1ccc2[nH]c(=O)c3cccc4c3c2c1C4 [Example 48] |
| 6.57 | 6.57 | O=C(CN1CCN(Cc2ccncc2)CC1)Nc1ccc2[nH]c(=O)c3cccc4c3c2c1C4 [Example 54] |
| 6.88 | 6.88 | CCN(CC)CCNCC(=O)Nc1ccc2[nH]c(=O)c3cccc4c3c2c1C4 [Example 45] |
| 6.41 | 6.41 | O=C(CN1CCN(CCN2CCCC2)CC1)Nc1ccc2[nH]c(=O)c3cccc4c3c2c1C4 [Example 58] |
